Measurements: US11725037B2, “Peptide dual agonists of GIPR and GLP2R” (University of Copenhagen, priority 2017, dated 2023)
Like-named read-outs stand apart in the source and are kept apart here. Ends that are not written are not given here. Peptide text beside a SMILES is read from it. * marks the point of attachment. Palmitoyl = CCCCCCCCCCCCCCCC(=O)*

Assays:
[1] = biological target: T1, human GIP receptor (Homo sapiens, UniProt P48546); test: cAMP accumulation assay (HitHunter cAMP XS) in transiently transfected COS-7 cells expressing the human GIP receptor; assay type: cell-based; settings: for Emax at 10 µM: COS-7, read-out: Emax (10 μM), GIP receptor; for fold (fold change of native GIP), GIP receptor: EC50 relative to native GIP
T1 construct: host or cells: COS-7 (transient, calcium phosphate; pCMV-Script vector)
T1 sequence (P48546 22-466): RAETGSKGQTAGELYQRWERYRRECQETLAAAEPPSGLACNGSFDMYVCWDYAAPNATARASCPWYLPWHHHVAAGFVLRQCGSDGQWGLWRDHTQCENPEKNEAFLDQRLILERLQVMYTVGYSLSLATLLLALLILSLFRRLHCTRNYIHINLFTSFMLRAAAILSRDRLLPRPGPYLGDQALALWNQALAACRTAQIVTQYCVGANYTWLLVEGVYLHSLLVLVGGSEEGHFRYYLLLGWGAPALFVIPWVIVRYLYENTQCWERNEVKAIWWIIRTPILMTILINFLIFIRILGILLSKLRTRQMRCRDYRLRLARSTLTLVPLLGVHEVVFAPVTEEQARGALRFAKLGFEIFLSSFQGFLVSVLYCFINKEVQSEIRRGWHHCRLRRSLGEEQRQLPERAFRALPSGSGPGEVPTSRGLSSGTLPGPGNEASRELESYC
Description: (§1) The day after, the cells were washed twice with Hepes buffered saline (HBS) buffer and incubated with HBS and 1 mM 3-isobutyl-1-methylxanthine (IBMX) for 30 min at 37° C. Ligands were added and incubated for 30 min at 37° C. The HitHunter™ cAMP XS assay (DiscoveRx) was carried out according to the manufacturer's instructions.

[2] = biological target: T2, human GLP-2 receptor (Homo sapiens, UniProt O95838); test: cAMP accumulation assay (HitHunter cAMP XS) in transiently transfected COS-7 cells expressing the human GLP-2 receptor; assay type: cell-based; settings: for Emax at 10 µM: COS-7, read-out: Emax (10 μM), GLP-2 receptor; for fold (fold change of native GLP-2), GLP-2 receptor: EC50 relative to native GLP-2
T2 construct: host or cells: COS-7 (transient, calcium phosphate; pCMV-Script vector)
T2 sequence (O95838 1-553): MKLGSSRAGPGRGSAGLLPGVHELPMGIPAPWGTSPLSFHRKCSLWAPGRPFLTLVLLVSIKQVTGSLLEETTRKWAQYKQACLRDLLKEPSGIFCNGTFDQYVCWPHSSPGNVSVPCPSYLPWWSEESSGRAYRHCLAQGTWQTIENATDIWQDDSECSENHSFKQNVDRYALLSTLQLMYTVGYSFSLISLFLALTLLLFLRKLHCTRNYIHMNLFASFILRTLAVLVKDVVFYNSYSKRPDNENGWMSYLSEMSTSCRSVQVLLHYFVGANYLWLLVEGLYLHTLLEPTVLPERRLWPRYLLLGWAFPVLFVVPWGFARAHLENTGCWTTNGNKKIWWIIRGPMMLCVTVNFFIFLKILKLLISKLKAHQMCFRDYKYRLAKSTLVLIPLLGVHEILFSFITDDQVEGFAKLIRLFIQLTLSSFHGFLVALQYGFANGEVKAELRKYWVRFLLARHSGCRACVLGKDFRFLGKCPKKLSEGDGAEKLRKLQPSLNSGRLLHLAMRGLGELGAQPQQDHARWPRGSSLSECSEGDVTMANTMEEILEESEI
Description: as §1

[3] = logEC50, GIP receptor, Table 2, log value, cAMP, COS-7
[4] = logEC50, GLP-2 receptor, Table 2, cAMP, COS-7

Molecule: CCCCCCCCCCCCCCCC(=O)NCCCC[C@H](NC(=O)[C@@H](NC(=O)[C@@H](NC(=O)[C@H](CCCCN)NC(=O)[C@@H](NC(=O)[C@H](CCC(N)=O)NC(=O)[C@@H](NC(=O)[C@H](CC(C)C)NC(=O)[C@H](Cc1c[nH]c2ccccc12)NC(=O)[C@H](CC(N)=O)NC(=O)[C@@H](NC(=O)[C@H](Cc1ccccc1)NC(=O)[C@H](CC(=O)O)NC(=O)[C@H](CCCNC(=N)N)NC(=O)[C@H](C)NC(=O)[C@H](C)NC(=O)[C@H](CC(C)C)NC(=O)[C@H](CC(N)=O)NC(=O)[C@H](CC(=O)O)NC(=O)[C@H](CC(C)C)NC(=O)[C@@H](NC(=O)[C@@H](NC(=O)[C@H](CO)NC(=O)[C@H](Cc1ccc(O)cc1)NC(=O)[C@H](CC(=O)O)NC(=O)[C@H](CO)NC(=O)[C@@H](NC(=O)[C@H](Cc1ccccc1)NC(=O)[C@@H](NC(=O)CNC(=O)[C@H](CC(=O)O)NC(=O)[C@H](C)NC(=O)[C@@H](N)Cc1c[nH]cn1)[C@@H](C)O)[C@@H](C)CC)[C@@H](C)O)[C@@H](C)CC)[C@@H](C)CC)[C@@H](C)CC)[C@@H](C)O)[C@@H](C)CC)[C@@H](C)O)C(=O)O [Co-agonist 33]
- Emax at 10 µM [1]: 100%
- fold (fold change of native GIP), GIP receptor ([1]; Table 2): 3.6 fold
- EC50 [1, 3]: 0.316 nM
- Emax at 10 µM [2]: 82%
- fold (fold change of native GLP-2), GLP-2 receptor ([2]; Table 2): 11 fold
- EC50 [2, 4]: 12.9 nM

Molecule: HADGTFISDYSTILDKLAARDFINWLIQTKITK [Co-agonist 26]
- Emax at 10 µM [1]: 100%
- fold (fold change of native GIP), GIP receptor ([1]; Table 2): 0.34 fold
- EC50 [1, 3]: 0.0302 nM
- Emax at 10 µM [2]: 100%
- fold (fold change of native GLP-2), GLP-2 receptor ([2]; Table 2): 0.26 fold
- EC50 [2, 4]: 0.309 nM

Molecule: HADGTFISDYSTIKDNLAARDFINWLIQTKITK [Co-agonist 25]
- Emax at 10 µM [1]: 92%
- fold (fold change of native GIP), GIP receptor ([1]; Table 2): 4.9 fold
- Emax at 10 µM [2]: 92%
- fold (fold change of native GLP-2), GLP-2 receptor ([2]; Table 2): 2.9 fold
- EC50 [2, 4]: 3.47 nM

Molecule: HADGTFISDYSTILDNLAARDFINWLIQTKGTD [Co-agonist 16]
- Emax at 10 µM [1]: 95%
- fold (fold change of native GIP), GIP receptor ([1]; Table 1): 6.7 fold
- Emax at 10 µM [2]: 74%
- fold (fold change of native GLP-2), GLP-2 receptor ([2]; Table 1): 68 fold
- EC50 ([2]; logEC50, GLP-2 receptor, Table 1, cAMP, COS-7): 87.1 nM

Molecule: CCCCCCCCCCCC(=O)NCCCC[C@H](NC(=O)[C@@H](NC(=O)[C@@H](NC(=O)[C@H](CCCCN)NC(=O)[C@@H](NC(=O)[C@H](CCC(N)=O)NC(=O)[C@@H](NC(=O)[C@H](CC(C)C)NC(=O)[C@H](Cc1c[nH]c2ccccc12)NC(=O)[C@H](CC(N)=O)NC(=O)[C@@H](NC(=O)[C@H](Cc1ccccc1)NC(=O)[C@H](CC(=O)O)NC(=O)[C@H](CCCNC(=N)N)NC(=O)[C@H](C)NC(=O)[C@H](C)NC(=O)[C@H](CC(C)C)NC(=O)[C@H](CC(N)=O)NC(=O)[C@H](CC(=O)O)NC(=O)[C@H](CC(C)C)NC(=O)[C@@H](NC(=O)[C@@H](NC(=O)[C@H](CO)NC(=O)[C@H](Cc1ccc(O)cc1)NC(=O)[C@H](CC(=O)O)NC(=O)[C@H](CO)NC(=O)[C@@H](NC(=O)[C@H](Cc1ccccc1)NC(=O)[C@@H](NC(=O)CNC(=O)[C@H](CC(=O)O)NC(=O)[C@H](C)NC(=O)[C@@H](N)Cc1c[nH]cn1)[C@@H](C)O)[C@@H](C)CC)[C@@H](C)O)[C@@H](C)CC)[C@@H](C)CC)[C@@H](C)CC)[C@@H](C)O)[C@@H](C)CC)[C@@H](C)O)C(=O)O [Co-agonist 32]
- Emax at 10 µM [1]: 100%
- fold (fold change of native GIP), GIP receptor ([1]; Table 2): 1.7 fold
- EC50 [1, 3]: 0.155 nM
- Emax at 10 µM [2]: 91%
- EC50 ([2]; EC50(nM), GLP-2 receptor, Table 2, cAMP, COS-7): 6.2 nM
- fold (fold change of native GLP-2), GLP-2 receptor ([2]; Table 2): 5.1 fold

Molecule: CCCCCCCCCCCCCCCC(=O)NCCCC[C@H](NC(=O)CNC(=O)[C@H](CCCCN)NC(=O)[C@@H](NC(=O)[C@H](CCC(N)=O)NC(=O)[C@@H](NC(=O)[C@H](CC(C)C)NC(=O)[C@H](Cc1c[nH]c2ccccc12)NC(=O)[C@H](CC(N)=O)NC(=O)[C@@H](NC(=O)[C@H](Cc1ccccc1)NC(=O)[C@H](CC(=O)O)NC(=O)[C@H](CCCNC(=N)N)NC(=O)[C@H](C)NC(=O)[C@H](C)NC(=O)[C@H](CC(C)C)NC(=O)[C@H](CC(N)=O)NC(=O)[C@H](CC(=O)O)NC(=O)[C@H](CC(C)C)NC(=O)[C@@H](NC(=O)[C@@H](NC(=O)[C@H](CO)NC(=O)[C@H](Cc1ccc(O)cc1)NC(=O)[C@H](CC(=O)O)NC(=O)[C@H](CO)NC(=O)[C@@H](NC(=O)[C@H](Cc1ccccc1)NC(=O)[C@@H](NC(=O)CNC(=O)[C@H](CC(=O)O)NC(=O)[C@H](C)NC(=O)[C@@H](N)Cc1c[nH]cn1)[C@@H](C)O)[C@@H](C)CC)[C@@H](C)O)[C@@H](C)CC)[C@@H](C)CC)[C@@H](C)CC)[C@@H](C)O)C(=O)N[C@@H](CCCCN)C(=O)O [Co-agonist 36]
- Emax at 10 µM [1]: 100%
- fold (fold change of native GIP), GIP receptor ([1]; Table 2): 8.9 fold
- Emax at 10 µM [2]: 71%
- fold (fold change of native GLP-2), GLP-2 receptor ([2]; Table 2): 17 fold
- EC50 [2, 4]: 20 nM

Molecule: HADGTFISDYSKILDNLAARDFINWLIQTKITK [Co-agonist 24]
- Emax at 10 µM [1]: 100%
- fold (fold change of native GIP), GIP receptor ([1]; Table 2): 1.7 fold
- EC50 [1, 3]: 0.151 nM
- Emax at 10 µM [2]: 96%
- fold (fold change of native GLP-2), GLP-2 receptor ([2]; Table 2): 0.62 fold

Molecule: CCCCCCCCCCCCCCCC(=O)N[C@@H](Cc1c[nH]cn1)C(=O)N[C@@H](C)C(=O)N[C@@H](CC(=O)O)C(=O)NCC(=O)N[C@H](C(=O)N[C@@H](Cc1ccccc1)C(=O)N[C@@H](CO)C(=O)N[C@@H](CO)C(=O)N[C@@H](CC(=O)O)C(=O)N[C@@H](Cc1ccc(O)cc1)C(=O)N[C@@H](CO)C(=O)N[C@H](C(=O)N[C@H](C(=O)N[C@@H](CC(C)C)C(=O)N[C@@H](CC(=O)O)C(=O)N[C@@H](CC(N)=O)C(=O)N[C@@H](CC(C)C)C(=O)N[C@@H](C)C(=O)N[C@@H](C)C(=O)N[C@@H](CCCNC(=N)N)C(=O)N[C@@H](CC(=O)O)C(=O)N[C@@H](Cc1ccccc1)C(=O)N[C@H](C(=O)N[C@@H](CC(N)=O)C(=O)N[C@@H](Cc1c[nH]c2ccccc12)C(=O)N[C@@H](CC(C)C)C(=O)N[C@H](C(=O)N[C@@H](CCC(N)=O)C(=O)N[C@H](C(=O)N[C@@H](CCCCN)C(=O)N[C@H](C(=O)N[C@H](C(=O)N[C@@H](CC(=O)O)C(=O)O)[C@@H](C)O)[C@@H](C)CC)[C@@H](C)O)[C@@H](C)CC)[C@@H](C)CC)[C@@H](C)CC)[C@@H](C)O)[C@@H](C)O [Co-agonist 22] (Palmitoyl-HADGTFSSDYSTILDNLAARDFINWLIQTKITD-OH)
- Emax at 10 µM [1]: 100%
- EC50 [1, 3]: 0.407 nM
- Emax at 10 µM [2]: 72%
- EC50 [2, 4]: 1.32 nM

Molecule: HAEGTFSDEYSTILDNLAARDFINWLIQTKITD [Co-agonist 5]
- Emax at 10 µM [1]: 75%
- fold (fold change of native GIP), GIP receptor ([1]; Table 1): 5124 fold
- Emax at 10 µM [2]: 91%
- EC50 ([2]; EC50(nM), GLP-2 receptor, Table 1, cAMP, COS-7): 6.2 nM
- fold (fold change of native GLP-2), GLP-2 receptor ([2]; Table 1): 5.2 fold

Molecule: HAEGTFISDYSTILDNLAARDFVNWLLAQKITD [Co-agonist 9]
- EC50 [1]: 3.16 nM
- Emax at 10 µM [1]: 100%
- fold (fold change of native GIP), GIP receptor ([1]; Table 1): 36 fold
- Emax at 10 µM [2]: 67%
- fold (fold change of native GLP-2), GLP-2 receptor ([2]; Table 1): 103 fold

Molecule: HAEGTFISDYSTILDNLAARDFINWLIQTKGKK [Co-agonist 10]
- Emax at 10 µM [1]: 100%
- fold (fold change of native GIP), GIP receptor ([1]; Table 1): 61 fold
- EC50 [2]: 21.9 nM
- Emax at 10 µM [2]: 77%
- fold (fold change of native GLP-2), GLP-2 receptor ([2]; Table 1): 18 fold
